This passage reports Activity results from ChEMBL document CHEMBL1124732, “Synthesis, conformation, and immunosuppressive activities of three analogues of cyclosporin A modified in the 1-position” (1990).

This experiment is described as follows: Relative immunosuppressive activity tested against inhibition of concanavalin A stimulated thymocytes. Type of experiment: functional. Further details: scale not given: the % may be the effect or the level left.

Consider `CC#CC[C@@H](C)[C@@H](O)[C@H]1C(=O)N[C@@H](CC)C(=O)N(C)CC(=O)N(C)[C@@H](CC(C)C)C(=O)N[C@@H](C(C)C)C(=O)N(C)[C@@H](CC(C)C)C(=O)N[C@@H](C)C(=O)N[C@H](C)C(=O)N(C)[C@@H](CC(C)C)C(=O)N(C)[C@@H](CC(C)C)C(=O)N(C)[C@@H](C(C)C)C(=O)N1C`, for which the Activity came to 10%.
